According to patent US12187672B2, “1,2-diacylglycerol compound, preparation method therefor, and immunomodulator containing same as active ingredient” (ENZYCHEM LIFESCIENCES CORPORATION, priority 2018, dated 2025):
Several values for one entry are separate records, joined by “and”; a condition that tells them apart may be missing. Identical values can stand only once.

What was measured:
IL-6 = assay: LPS-induced IL-6 secretion reduction in RAW264.7 cells (ELISA); type: cell-based, mouse; conditions: for IL-6 concentration (average ± deviation): sample 100 μg/ml 1 h, then LPS 1 μg/ml 24 h
Summary of the method: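 Mouse RAW264.7 macrophages in DMEM/10% FBS were plated at 5×10^4 cells/ml, rested for 15 h, treated with compound for 1 h, then stimulated with 1 μg/ml LPS for 24 h at 37 °C. IL-6 in the supernatant was measured by sandwich ELISA (HRP, OD 450 nm) and expressed as reduction rate or concentration.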

STAT3 [1] = assay: STAT3 activity, pGL4.47 SIE luciferase reporter in LPS-treated RAW264.7 cells; type: cell-based, mouse; conditions: sample 100 μg/ml 1 h, then LPS 1 μg/ml 18 h
Protocol: pGL4.47 [luc2P/SIE/Hygro] vector containing the sis-Inducible Element that binds to STAT3 was injected into RAW264.7 cells to confirm the degree of STAT3 activity. In DMEM (Hyclone, Thermo Scientific) medium to which 10% Fetal Bovine Serum was added, RAW264.7 cells were cultured at a concentration of 1×10^5 cells/ml, and maintained in a 5% CO2 humidified incubator at 37° C. The cultured RAW264.7 cells were inoculated into a 48 well plate by 1×10^5 cells/ml and stabilized for 18 hours. Thereafter, the pGL4.47 [luc2P/SIE/Hygro] vector containing sis-Inducible Element was mixed with Attractene to induce complex formation at room temperature for 15 minutes. This complex was treated with the cells and then further incubated for 18 hours. Thereafter, the culture solution was treated with a glycerol derivative compounds of the type shown in Table 5 below for 1 hour and then LPS (1 μg/ml) was treated and further incubated for 18 hours for STAT3 activity. Thereafter, the culture supernatant was removed for each well, and the remaining cells were lysed with a cell lysis buffer, and then cell lysate was recovered. 90 μl of luciferase reagent was mixed with 10 μl of the recovered cell lysate, and the degree of fluorescence was confirmed using a luminometer.

STAT3 [2] = assay: IL-6-induced STAT3 activity, SEAP expression in HEK-Blue IL-6 cells; type: cell-based; conditions: HEK-Blue IL-6 cells; for STAT3 activity_SEAP expression(%) (average ± deviation): sample 100 μg/ml 1 h, then IL-6 5 ng/ml 24 h, negative control = 100
Protocol: HEK-Blue™ IL-6 cells were used to confirm STAT3 activity by STAT3-induced SEAP (secreted embryonic alkaline phosphatase) expression. In DMEM (Hyclone, Thermo Scientific) medium to which 10% Fetal Bovine Serum was added, HEK-Blue™ IL-6 cells were cultured at a concentration of 1×10^5 cells/ml, and maintained in a 5% CO2 humidified incubator at 37° C. The cultured HEK-Blue™ IL-6 cells were inoculated by 1×10^5 cells/ml. Then, the culture solution was treated with a glycerol derivative compounds of the type shown in Table 4 below for 1 hour and then IL-6 (5 ng/ml) was further incubated for 24 hours for STAT3 activity. Thereafter, the culture supernatant was collected for each well and centrifuged (at 3000 rpm, 5 minutes) to recover the supernatant. The SEAP expression level in the recovered supernatant was mixed with Quanti blue reagent and the supernatant at a ratio of 1:10 and left at 37° C. for about 30 minutes. Then, the SEAP concentration was confirmed at 650 nm wavelength using a spectrophotometer, and the results (STAT3 activity inhibitory ability) thereof are shown in Table 4 and FIG. 3 below.

[3] = system: Aeruginosa K (PAK) of the genus Psuedomonas; assay: Infection inhibition test in mouse model of lung infection with bacteria (CFU in BALF); type: in vivo, Balb/c mice; conditions: 250 mg/kg oral
Protocol: For getting mice model whose lung are infected with bacteria, 12-week old Balb/c male mice were purchased from Koatech Corporation (South Korea) and maintained in certain pathogen-free facilities under moderate temperature and lights cycles. For obtain bacteria to induce lung infection, Aeruginosa K (PAK) of the genus Psuedomonas was incubated in LB broth or LB agar plate overnight at 37° C., and then the culture solution was centrifuged at 13,000×g for 2 minutes to obtain a bacterial pellet. Thereafter, the bacterial pellet was suspended in phosphate buffered saline (PBS), and the optical density of the serial dilution was measured and plated on an agar plate, so that bacterial inoculum having a colony forming unit (CFU) was obtained. A bacterial inoculum solution for infection was prepared at a concentration of 1×10^5 CFU per 20 μl, and the prepared PAK bacterial inoculum (1×10^5 CFU per mouse in 20 μl PBS) was administered to a total of 8 12-week-old Balb/c mice by nasal injection. Four of the PAK-administered groups were orally administered the compound of the present invention (EC_A21) at 250 mg/kg, and PBS was administered to the control group. After 4 hours, samples of bronchoalveolar lavage fluid (BALF) from P. aeruginosa-infected mice were collected, and the collected BALF samples were diluted 1:1000 with PBS. The diluted samples were plated on LB agar and then incubated overnight at 37° C. CFU levels in BALF were confirmed by measuring the number of surviving bacteria by a plate count method. The results are shown in Table 8, FIG. 7 and FIG. 8 below.

CCCCC/C=C\C/C=C\CCCCCCCC(=O)OC(COC(C)=O)COC(=O)CCCCCCCCCCCCCCC (centres unmarked) [EC-18, 1-palmitoyl-2-linoleoyl-3-acetylglycerol, reference compound]
decrease of IL-6 secretion/expression compared to the LPS-treated group (IL-6; 100 μg/ml): about 30%
IL-6 concentration (average ± deviation) (IL-6; Table 2): 194 ± 11 pg/µL
IL-6 concentration (average ± deviation) (IL-6; Table 3): 0.491 ± 0.063 pg/µL
STAT3 activity_Luciferase activity (average ± deviation) (STAT3 [1]): 491.5 ± 41.7
decrease of STAT3 activity compared to the IL-6 cytokine-treated group (STAT3 [2]; 100 μg/ml): about 25%
STAT3 activity_SEAP expression(%) (average ± deviation) (STAT3 [2]): 173.0 ± 7.9%

CCCCC/C=C\C/C=C\CCCCCCCC(=O)OC(COC(=O)CCCCCCCCCCCCCCC)COC(C)C (centres unmarked) [EC_A21]
bacterial CFU in BALF, average ± deviation ([3]; PAK 1×10^5 CFU nasal, BALF after 4 hours, 4 Balb/c mice): 14.0 ± 6.0 10^3 CFU/ml
bacterial CFU in BALF, individual mouse ([3]; PAK 1×10^5 CFU nasal, BALF after 4 hours, Balb/c mice, 250 mg/kg): 8.0 10^3 CFU/ml and 19.0 10^3 CFU/ml and 20.0 10^3 CFU/ml and 14.0 10^3 CFU/ml
bacterial CFU in BALF versus PAK alone group (in words) ([3]; fourth hour after PAK administration): significantly lower than that of the PAK alone group
IL-6 concentration (average ± deviation) (IL-6; Table 2): 176 ± 2 pg/µL
STAT3 activity_SEAP expression(%) (average ± deviation) (STAT3 [2]): 224.1 ± 22.4%

CCCCC/C=C\C/C=C\CCCCCCCC(=O)OC(COC(=O)CC)COC(=O)CCCCCCCCCCCCCCC (centres unmarked) [EC_A78]
IL-6 concentration (average ± deviation) (IL-6; Table 3): 0.708 ± 0.086 pg/µL
STAT3 activity_Luciferase activity (average ± deviation) (STAT3 [1]): 912.5 ± 214.2

CCCCC/C=C\C/C=C\CCCCCCCC(=O)OC(COC(=O)CCCCCCCCCCCCCCC)COC(=O)C1CC1 (centres unmarked) [EC_A79]
IL-6 concentration (average ± deviation) (IL-6; Table 3): 0.652 ± 0.145 pg/µL
STAT3 activity_Luciferase activity (average ± deviation) (STAT3 [1]): 1183.5 ± 51.6

CCCCC/C=C\C/C=C\CCCCCCCC(=O)OC(COC(=O)CCCCCC)COC(=O)CCCCCCCCCCCCCCC (centres unmarked) [EC_A83]
IL-6 concentration (average ± deviation) (IL-6; Table 3): 0.658 ± 0.070 pg/µL
STAT3 activity_Luciferase activity (average ± deviation) (STAT3 [1]): 510.2 ± 27.2

CCCCC/C=C\C/C=C\CCCCCCCC(=O)OC(COC(=O)CCC)COC(=O)CCCCCCC (centres unmarked) [EC_A85]
IL-6 concentration (average ± deviation) (IL-6; Table 3): 0.741 ± 0.071 pg/µL
STAT3 activity_Luciferase activity (average ± deviation) (STAT3 [1]): 1126.7 ± 32.1

CCCCC/C=C\C/C=C\CCCCCCCC(=O)OC(COC(=O)CCCC)COC(=O)CCCCCCC (centres unmarked) [EC_A86]
IL-6 concentration (average ± deviation) (IL-6; Table 3): 0.796 ± 0.045 pg/µL
STAT3 activity_Luciferase activity (average ± deviation) (STAT3 [1]): 866.2 ± 15.2

CCCCC/C=C\C/C=C\CCCCCCCC(=O)OC(COC(=O)CC)COC(=O)CCCCCCC (centres unmarked) [EC_A87]
IL-6 concentration (average ± deviation) (IL-6; Table 3): 0.705 ± 0.158 pg/µL
STAT3 activity_Luciferase activity (average ± deviation) (STAT3 [1]): 1312 ± 34.6

CCCCC/C=C\C/C=C\CCCCCCCC(=O)OC(COC(=O)CCCCCCC)COC(=O)C(C)C (centres unmarked) [EC_A88]
IL-6 concentration (average ± deviation) (IL-6; Table 3): 0.792 ± 0.086 pg/µL
STAT3 activity_Luciferase activity (average ± deviation) (STAT3 [1]): 1171.5 ± 146.3

CCCCCC=CCC=CCCCCCCCC(=O)OC(COC(=O)CCCCCCC)COC(=O)C(C)(C)C (centres unmarked) [EC_A89]
IL-6 concentration (average ± deviation) (IL-6; Table 3): 0.736 ± 0.097 pg/µL
STAT3 activity_Luciferase activity (average ± deviation) (STAT3 [1]): 1087.7 ± 257.7

CCCCC/C=C\C/C=C\CCCCCCCC(=O)OC(COC(=O)CC)COC(=O)CCCCCCCCCCC (centres unmarked) [EC_A91]
IL-6 concentration (average ± deviation) (IL-6; Table 3): 0.752 ± 0.068 pg/µL
STAT3 activity_Luciferase activity (average ± deviation) (STAT3 [1]): 746.5 ± 26.1

CCCCC/C=C\C/C=C\CCCCCCCC(=O)OC(COC(=O)CCC)COC(=O)CCCCCCCCCCC (centres unmarked) [EC_A92]
IL-6 concentration (average ± deviation) (IL-6; Table 3): 0.800 ± 0.038 pg/µL
STAT3 activity_Luciferase activity (average ± deviation) (STAT3 [1]): 820 ± 448.3

CCCCC/C=C\C/C=C\CCCCCCCC(=O)OC(COC(=O)CCCC)COC(=O)CCCCCCCCCCC (centres unmarked) [EC_A93]
IL-6 concentration (average ± deviation) (IL-6; Table 3): 0.765 ± 0.055 pg/µL
STAT3 activity_Luciferase activity (average ± deviation) (STAT3 [1]): 536.2 ± 222.3

CCCCC/C=C\C/C=C\CCCCCCCC(=O)OC(COC(=O)CCCCCCCCCCC)COC(=O)C(C)CC (centres unmarked) [EC_A96]
IL-6 concentration (average ± deviation) (IL-6; Table 3): 0.788 ± 0.006 pg/µL
STAT3 activity_Luciferase activity (average ± deviation) (STAT3 [1]): 1136.7 ± 63.9

CCCCC/C=C\C/C=C\CCCCCCCC(=O)OC(COC(=O)CC)COC(=O)CCCCCCCCC (centres unmarked) [EC_A97]
IL-6 concentration (average ± deviation) (IL-6; Table 3): 0.745 ± 0.015 pg/µL
STAT3 activity_Luciferase activity (average ± deviation) (STAT3 [1]): 573.2 ± 146.7

CCCCC/C=C\C/C=C\CCCCCCCC(=O)OC(COC(=O)CCC)COC(=O)CCCCCCCCC (centres unmarked) [EC_A98]
IL-6 concentration (average ± deviation) (IL-6; Table 3): 0.619 ± 0.036 pg/µL
STAT3 activity_Luciferase activity (average ± deviation) (STAT3 [1]): 370.7 ± 35.0

CCCCC/C=C\C/C=C\CCCCCCCC(=O)OC(COC(=O)CCCC)COC(=O)CCCCCCCCC (centres unmarked) [EC_A99]
IL-6 concentration (average ± deviation) (IL-6; Table 3): 0.666 ± 0.075 pg/µL
STAT3 activity_Luciferase activity (average ± deviation) (STAT3 [1]): 353.2 ± 83.0

CCCCC/C=C\C/C=C\CCCCCCCC(=O)OC(COC(=O)CCCCCCCCC)COC(=O)C(C)C (centres unmarked) [EC_A100]
IL-6 concentration (average ± deviation) (IL-6; Table 3): 0.749 ± 0.054 pg/µL
STAT3 activity_Luciferase activity (average ± deviation) (STAT3 [1]): 572.2 ± 60.4

CCCCC/C=C\C/C=C\CCCCCCCC(=O)OC(COC(=O)CCCCCCCCC)COC(=O)C(C)(C)C (centres unmarked) [EC_A101]
IL-6 concentration (average ± deviation) (IL-6; Table 3): 0.645 ± 0.057 pg/µL
STAT3 activity_Luciferase activity (average ± deviation) (STAT3 [1]): 581.7 ± 8.1

CCCCC/C=C\C/C=C\CCCCCCCC(=O)OC(COC(=O)CCCCCCCCC)COC(=O)C(C)CC (centres unmarked) [EC_A102]
IL-6 concentration (average ± deviation) (IL-6; Table 3): 0.738 ± 0.070 pg/µL
STAT3 activity_Luciferase activity (average ± deviation) (STAT3 [1]): 602 ± 11.3
